The record followed here is the Kinase Knowledgebase extract (Sharma et al. 2016).

Molecules are shown by their SMILES.

Broadly, the IC50 is the concentration that inhibits the measured activity by half. Low readings indicate inhibition by little substance, high ones a need for much substance. The inhibition is how much of the control response was suppressed.

The target of one experiment is MAPK14 (human) (UniProt Q16539). Description: Inhibition of LPS Stimulated TNF Production by U937 Cells.
Sequence of MAPK14 (human) (Q16539 whole entry, looked up): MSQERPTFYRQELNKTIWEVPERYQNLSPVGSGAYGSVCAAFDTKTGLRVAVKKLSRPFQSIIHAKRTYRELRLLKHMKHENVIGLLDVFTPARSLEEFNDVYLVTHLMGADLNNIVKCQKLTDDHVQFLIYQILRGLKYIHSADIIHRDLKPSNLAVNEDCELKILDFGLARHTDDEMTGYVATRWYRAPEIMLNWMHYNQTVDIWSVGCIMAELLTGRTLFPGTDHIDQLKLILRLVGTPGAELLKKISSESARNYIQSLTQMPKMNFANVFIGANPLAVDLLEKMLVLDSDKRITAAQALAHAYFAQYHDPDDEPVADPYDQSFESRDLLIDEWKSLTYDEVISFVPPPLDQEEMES
Conditions: not given
With `Fc1ccc(-c2[nH]nc(NCCCN3CCOCC3)c2-c2ccncc2)cc1`, the IC50 worked out at 0.09 µM. That is a double-digit nanomolar value.

As for `CC(C)COC(=O)NCc1[nH]nc(-c2ccc(F)cc2)c1-c1ccncc1`, the half-inhibitory concentration (IC50) came out at 0.72 µM.

Turning to `C#CCn1ncc(-c2ccncc2)c1-c1ccc(F)cc1`, the IC50 is > 10 µM.

In turn, `COc1cccc(-c2[nH]nc(C)c2-c2ccncc2)c1` had an IC50 of 0.477 µM.

In the case of `Cc1onc(-c2c(F)cccc2Cl)c1C(=O)NCc1[nH]nc(-c2ccc(F)cc2)c1-c1ccncc1`, the IC50 was > 1 µM.

On to `C[C@@H](NC(N)=O)c1[nH]nc(-c2ccc(F)cc2)c1-c1ccncc1`, for which the IC50 was determined as 1.51 µM.

In the case of `Fc1ccc(-c2[nH]nc(Nc3ccccc3)c2-c2ccncc2)cc1`, the IC50 was determined as 1.09 µM.

In the case of `O=S(=O)(c1cccc(Br)c1)N1CCC(c2[nH]nc(-c3ccc(F)cc3)c2-c2ccncc2)CC1`, the IC50 is > 1 µM.

In turn, `Cc1ccc(-c2n[nH]c(C)c2-c2ccncc2)cc1` gave an IC50 of 0.274 µM.

As for `Cn1nc(-c2ccc(F)cc2)c(-c2ccncc2)c1Br`, the half-inhibitory concentration (IC50) was determined as 1.4 µM.

In turn, `O=C(NCc1[nH]nc(-c2ccc(F)cc2)c1-c1ccncc1)c1ccc(F)cc1` had an IC50 of 2.76 µM.

The compound `CC(=O)NCc1[nH]nc(-c2ccc(F)cc2)c1-c1ccncc1` came in with an IC50 of 0.19 µM.

Turning to `CN(C)CCCNc1n[nH]c(-c2ccc(F)cc2)c1-c1ccncc1`, the IC50 was determined as 0.27 µM.

For the compound `O=C(NCc1[nH]nc(-c2ccc(F)cc2)c1-c1ccncc1)C1CC1`, the IC50 amounted to 3.33 µM.

`O=C(NCc1[nH]nc(-c2ccc(F)cc2)c1-c1ccncc1)c1ccc(F)c(F)c1` registered an IC50 of 1.01 µM. Against the preceding compound, the IC50 is about 3.3-fold lower.

The compound `Clc1ccc(-c2n[nH]cc2-c2ccnc(NCc3ccccn3)c2)cc1` showed a concentration for half-maximal inhibition (IC50) of 0.166 µM.

In the case of `CNC(=O)CC[C@H](NC(=O)c1cccc(Br)c1)c1[nH]nc(-c2ccc(F)cc2)c1-c1ccncc1`, the IC50 was > 1 µM.

`O=C(N[C@H](Cc1ccccc1)c1[nH]nc(-c2ccc(F)cc2)c1-c1ccncc1)c1ccc(F)cc1`: the IC50 is > 1 µM.

With `CC(C)S(=O)(=O)NCc1[nH]nc(-c2ccc(F)cc2)c1-c1ccncc1`, the IC50 amounted to 5 µM. This lies in the single-digit micromolar range.

In turn, `O=C(c1ccc(Cl)cc1)N1CCC(c2[nH]nc(-c3ccc(F)cc3)c2-c2ccncc2)CC1` came in with an IC50 of 0.57 µM. This IC50 lies about 8.8-fold lower than the previous one.

`CN(C)CCn1cc(-c2ccnc(CCc3ccc(F)cc3)c2)c(-c2ccc(F)cc2)n1`: the IC50 is > 10 µM.

Staying with this experiment, now noted: concentration not given here.
In turn, `COC(=O)CCCCCCC(=O)NCc1[nH]nc(-c2ccc(F)cc2)c1-c1ccncc1` displayed an inhibition of 9%.

`CCOC(=O)c1cccc(NC(=O)NCc2[nH]nc(-c3ccc(F)cc3)c2-c2ccncc2)c1` had an inhibition of 14%.

In the case of `C[C@@H](NC(=O)[C@H]1CCCN1)c1[nH]nc(-c2ccc(F)cc2)c1-c1ccncc1`, the inhibition was 39%.

`CSc1cccc(NC(=O)NCc2[nH]nc(-c3ccc(F)cc3)c2-c2ccncc2)c1` gave an inhibition of 12%.

`Cc1ccc(S(=O)(=O)N[C@@H](Cc2ccccc2)C(=O)N[C@@H](C)c2[nH]nc(-c3ccc(F)cc3)c2-c2ccncc2)cc1` yielded an inhibition of 31%.

Turning to `O=C(N[C@H](Cc1ccccc1)c1[nH]nc(-c2ccc(F)cc2)c1-c1ccncc1)c1ccncc1`, the inhibition was 25%.

With `C[C@H](NS(=O)(=O)c1ccc(S(=O)(=O)c2ccccc2)s1)c1[nH]nc(-c2ccc(F)cc2)c1-c1ccncc1`, the inhibition came out at 72%.

`C[C@@H](NC(=O)c1ccc(F)c(F)c1)c1[nH]nc(-c2ccc(F)cc2)c1-c1ccncc1` came in with an inhibition of 52%.

The compound `O=C(NCc1[nH]nc(-c2ccc(F)cc2)c1-c1ccncc1)c1ccccc1Cl` yielded an inhibition of 55%.

`O=C(NCc1[nH]nc(-c2ccc(F)cc2)c1-c1ccncc1)N[C@@H]1C[C@@H]1c1ccccc1` returned an inhibition of 21%.

Turning to `CC(C)c1cc(C(C)C)c(C(=O)N[C@H](C)c2[nH]nc(-c3ccc(F)cc3)c2-c2ccncc2)c(C(C)C)c1`, the inhibition came out at 31%.

In the case of `C[C@H](NC(=O)N[C@@H](C)c1[nH]nc(-c2ccc(F)cc2)c1-c1ccncc1)c1ccccc1`, the inhibition came out at 29%.

On to `CCCCOc1ccc(S(=O)(=O)NCc2[nH]nc(-c3ccc(F)cc3)c2-c2ccncc2)cc1`, for which the inhibition is 31%.

`C[C@H](NC(=O)c1cc(F)ccc1F)c1[nH]nc(-c2ccc(F)cc2)c1-c1ccncc1` registered an inhibition of 44%.

With `Cc1ccccc1C(=O)N[C@@H](C)c1[nH]nc(-c2ccc(F)cc2)c1-c1ccncc1`, the inhibition came out at 34%.

Take `COc1ccc(S(=O)(=O)NCc2[nH]nc(-c3ccc(F)cc3)c2-c2ccncc2)c([N+](=O)[O-])c1`: the inhibition was 10%.

`O=C(NCc1[nH]nc(-c2ccc(F)cc2)c1-c1ccncc1)Nc1ccc(C(F)(F)F)cc1` displayed an inhibition of 10%.

In the case of `C[C@H](NS(=O)(=O)C[C@]12CC[C@@H](CC1=O)C2(C)C)c1[nH]nc(-c2ccc(F)cc2)c1-c1ccncc1`, the inhibition is 60%.

Turning to `Cc1c(Cl)cccc1S(=O)(=O)N[C@@H](C)c1[nH]nc(-c2ccc(F)cc2)c1-c1ccncc1`, the inhibition stood at 54%.

`Cc1noc(C)c1S(=O)(=O)N[C@@H](C)c1[nH]nc(-c2ccc(F)cc2)c1-c1ccncc1` yielded an inhibition of 74%.

As for `CC(C)=CC(=O)N[C@H](C)c1[nH]nc(-c2ccc(F)cc2)c1-c1ccncc1`, the inhibition came to 28%.

With `C[C@H](NC(=O)c1cc(F)c(F)cc1F)c1[nH]nc(-c2ccc(F)cc2)c1-c1ccncc1`, the inhibition was 43%.

`O=S(=O)(c1c(F)cccc1F)N1CCC(c2[nH]nc(-c3ccc(F)cc3)c2-c2ccncc2)CC1` gave an inhibition of 8%.

In turn, `C[C@@H](NC(=O)[C@@H]1CCCN1)c1[nH]nc(-c2ccc(F)cc2)c1-c1ccncc1` returned an inhibition of 27%.

`CS(=O)(=O)N[C@H](Cc1ccccc1)c1[nH]nc(-c2ccc(F)cc2)c1-c1ccncc1` showed an inhibition of 17%.

`O=C(NCCCc1[nH]nc(-c2ccc(F)cc2)c1-c1ccncc1)NCCCN1CCCC1` displayed an inhibition of 1%.

In turn, `O=C(NCc1[nH]nc(-c2ccc(F)cc2)c1-c1ccncc1)c1ccc(F)c(C(F)(F)F)c1` gave an inhibition of 22%.

For the compound `C[C@H](NC(=O)c1ccc(F)c(C(F)(F)F)c1)c1[nH]nc(-c2ccc(F)cc2)c1-c1ccncc1`, the inhibition is 27%.

On to `C[C@H](NS(=O)(=O)c1ccc(Cl)cc1Cl)c1[nH]nc(-c2ccc(F)cc2)c1-c1ccncc1`, for which the inhibition was 88%.

Consider `Cc1ccc(C)c(S(=O)(=O)N[C@H](C)c2[nH]nc(-c3ccc(F)cc3)c2-c2ccncc2)c1`, for which the inhibition worked out at 93%.

Regarding `Cc1ccc(S(=O)(=O)N[C@@H](Cc2ccccc2)C(=O)N[C@H](C)c2[nH]nc(-c3ccc(F)cc3)c2-c2ccncc2)cc1`, the inhibition is 10%.

For `C[C@@H](NS(=O)(=O)c1ccc(-c2ccon2)s1)c1[nH]nc(-c2ccc(F)cc2)c1-c1ccncc1`, the inhibition amounted to 95%.

As for `O=C(NCc1[nH]nc(-c2ccc(F)cc2)c1-c1ccncc1)Nc1ccccc1-c1ccccc1`, the inhibition was 2%.

`C[C@@H](NS(=O)(=O)c1ccc(-c2ccccc2)cc1)c1[nH]nc(-c2ccc(F)cc2)c1-c1ccncc1` showed an inhibition of 95%.

Compound `Cc1ccccc1C(=O)NCc1[nH]nc(-c2ccc(F)cc2)c1-c1ccncc1` returned an inhibition of 11%.

With `COc1cccc(CC(=O)N[C@H](C)c2[nH]nc(-c3ccc(F)cc3)c2-c2ccncc2)c1`, the inhibition turned out to be 18%.

For the compound `C[C@@H](NC(=O)c1cc(F)ccc1F)c1[nH]nc(-c2ccc(F)cc2)c1-c1ccncc1`, the inhibition is 67%.

For the compound `O=C(NCc1[nH]nc(-c2ccc(F)cc2)c1-c1ccncc1)c1ccc(F)c(F)c1`, the inhibition worked out at 26%.

For the compound `Cc1cccc(C)c1NC(=O)N[C@H](C)c1[nH]nc(-c2ccc(F)cc2)c1-c1ccncc1`, the inhibition turned out to be 50%.

Turning to `Cc1c(C)c(S(=O)(=O)N[C@@H](C)c2[nH]nc(-c3ccc(F)cc3)c2-c2ccncc2)c(C)c2c1OC(C)(C)CC2`, the inhibition was found to be 87%.

For the compound `C[C@@H](NC(=O)C1CC1)c1[nH]nc(-c2ccc(F)cc2)c1-c1ccncc1`, the inhibition came out at 46%.

For the compound `C[C@H](NC(=O)N1CCOCC1)c1[nH]nc(-c2ccc(F)cc2)c1-c1ccncc1`, the inhibition is 37%.

The compound `O=S(=O)(NCc1[nH]nc(-c2ccc(F)cc2)c1-c1ccncc1)c1ccc(Cl)cc1` returned an inhibition of 37%.

As to `O=C(NCc1[nH]nc(-c2ccc(F)cc2)c1-c1ccncc1)Nc1ccccc1`, the inhibition was determined as 31%.

In the case of `C[C@H](NC(=O)[C@@H]1CCCN1)c1[nH]nc(-c2ccc(F)cc2)c1-c1ccncc1`, the inhibition was determined as 47%.

Turning to `CNC(=O)CC[C@H](NC(=O)Nc1c(C)cccc1C)c1[nH]nc(-c2ccc(F)cc2)c1-c1ccncc1`, the inhibition amounted to 9%.

For the compound `C[C@H](NC(=O)c1cccc(C(F)(F)F)c1F)c1[nH]nc(-c2ccc(F)cc2)c1-c1ccncc1`, the inhibition amounted to 15%.

With `C[C@@H](NC(=O)c1cc(Cl)cc(Cl)c1)c1[nH]nc(-c2ccc(F)cc2)c1-c1ccncc1`, the inhibition came to 11%.

Regarding `C[C@H](NC(=O)Nc1ccc(F)cc1)c1[nH]nc(-c2ccc(F)cc2)c1-c1ccncc1`, the inhibition amounted to 26%.

`O=C(NCCc1[nH]nc(-c2ccc(F)cc2)c1-c1ccncc1)c1cc(F)cc(F)c1` gave an inhibition of 29%.

`CCc1ccc(S(=O)(=O)NCc2[nH]nc(-c3ccc(F)cc3)c2-c2ccncc2)cc1` gave an inhibition of 8%.

In turn, `CC1(C)[C@@H]2CC[C@]1(S(=O)(=O)NCCc1[nH]nc(-c3ccc(F)cc3)c1-c1ccncc1)C(=O)C2` showed an inhibition of 56%.

On to `Cc1noc(C)c1S(=O)(=O)NCc1[nH]nc(-c2ccc(F)cc2)c1-c1ccncc1`, for which the inhibition turned out to be 1%.

`C[C@@H](NC(=O)c1c(F)ccc(F)c1F)c1[nH]nc(-c2ccc(F)cc2)c1-c1ccncc1`: the inhibition came to 73%.

Take `CNC(=O)CC[C@H](NC(=O)c1ccncc1)c1[nH]nc(-c2ccc(F)cc2)c1-c1ccncc1`: the inhibition was found to be 8%.

For `C[C@@H](NS(=O)(=O)/C=C/c1ccccc1)c1[nH]nc(-c2ccc(F)cc2)c1-c1ccncc1`, the inhibition worked out at 36%.

On to `Cc1c(-c2ccncc2)c(-c2ccc(F)cc2)nn1CC(=O)NCCc1cccs1`, for which the inhibition worked out at 36%.

`Cn1cnc(S(=O)(=O)N2CCC(c3[nH]nc(-c4ccc(F)cc4)c3-c3ccncc3)CC2)c1` returned an inhibition of 28%.

For `C[C@@H](NC(=O)c1cccc(C#N)c1)c1[nH]nc(-c2ccc(F)cc2)c1-c1ccncc1`, the inhibition was 37%.

Take `O=S(=O)(NCc1[nH]nc(-c2ccc(F)cc2)c1-c1ccncc1)c1ccc(S(=O)(=O)c2ccccc2)s1`: the inhibition worked out at 64%.
